Assay results: ChEMBL document CHEMBL1201862, “PubChem BioAssay data set” (2004)
Calls of active or inactive are those of the source.

Columns and labels:
[1] = target: T1, Mannose-6-phosphate isomerase (Homo sapiens, UniProt P34949); test: Confirmation of compounds inhibiting phosphomannose isomerase (PMI) via a fluorescence intensity assay using a high concentration of mannose 6-phosphate. [Related pubchem assays (depositor defined):AID1209, AID1220, AID1545, AID1553, AID1620]
T1 sequence (P34949 whole entry): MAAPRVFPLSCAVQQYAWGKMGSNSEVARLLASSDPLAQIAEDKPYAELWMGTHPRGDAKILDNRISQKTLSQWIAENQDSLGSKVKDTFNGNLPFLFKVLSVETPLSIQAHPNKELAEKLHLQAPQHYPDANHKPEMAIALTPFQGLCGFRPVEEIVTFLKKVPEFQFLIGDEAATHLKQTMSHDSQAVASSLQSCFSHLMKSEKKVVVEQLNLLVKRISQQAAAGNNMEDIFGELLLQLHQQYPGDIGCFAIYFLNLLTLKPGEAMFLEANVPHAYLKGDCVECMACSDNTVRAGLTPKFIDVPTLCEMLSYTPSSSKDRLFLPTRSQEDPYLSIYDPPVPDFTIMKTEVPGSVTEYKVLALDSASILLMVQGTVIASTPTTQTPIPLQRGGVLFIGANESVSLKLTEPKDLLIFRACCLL

[2] = target: T1, Mannose-6-phosphate isomerase; test: PMI enzyme inhibitors, confirmation, biochemical, fluorescence intensity (AID 1535)
[3] = target: Alkaline phosphatase, placental type (Homo sapiens, UniProt P05187); test: PLAP enzyme inhibitors, confirmation, biochemical, luminescence (AID 1512); type: functional
Chain of Alkaline phosphatase, placental type (P05187 whole entry): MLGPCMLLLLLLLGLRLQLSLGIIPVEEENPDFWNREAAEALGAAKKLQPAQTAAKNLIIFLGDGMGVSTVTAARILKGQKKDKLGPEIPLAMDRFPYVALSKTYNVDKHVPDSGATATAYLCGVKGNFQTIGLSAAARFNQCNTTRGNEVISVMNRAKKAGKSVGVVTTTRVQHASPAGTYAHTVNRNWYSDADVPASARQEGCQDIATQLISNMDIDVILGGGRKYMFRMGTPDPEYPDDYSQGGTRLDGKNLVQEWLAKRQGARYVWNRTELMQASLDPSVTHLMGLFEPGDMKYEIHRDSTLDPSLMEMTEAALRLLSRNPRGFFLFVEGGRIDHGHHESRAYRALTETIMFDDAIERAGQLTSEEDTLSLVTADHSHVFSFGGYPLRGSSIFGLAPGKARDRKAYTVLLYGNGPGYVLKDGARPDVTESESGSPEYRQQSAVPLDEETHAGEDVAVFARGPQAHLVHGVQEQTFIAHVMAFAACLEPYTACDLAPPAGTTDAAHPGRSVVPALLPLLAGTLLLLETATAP

[4] = target: DNA damage-inducible transcript 3 protein (Mus musculus, UniProt P35639); type: functional, Cricetulus griseus
Chain of DNA damage-inducible transcript 3 protein (P35639 whole entry): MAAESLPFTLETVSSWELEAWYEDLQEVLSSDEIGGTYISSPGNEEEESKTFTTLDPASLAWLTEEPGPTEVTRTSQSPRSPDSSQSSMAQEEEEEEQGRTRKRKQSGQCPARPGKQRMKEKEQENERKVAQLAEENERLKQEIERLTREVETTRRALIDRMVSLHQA

[5] = target: T2, Short transient receptor potential channel 4 (Mus musculus, UniProt Q9QUQ5); test: TRPC4 positive allosteric modulators, dose response, cell-based, HEK293 TRPC4/mu-opioid, Fluo-4 calcium, EC20 DAMGO (AID 434941); type: functional
T2 sequence (Q9QUQ5 whole entry): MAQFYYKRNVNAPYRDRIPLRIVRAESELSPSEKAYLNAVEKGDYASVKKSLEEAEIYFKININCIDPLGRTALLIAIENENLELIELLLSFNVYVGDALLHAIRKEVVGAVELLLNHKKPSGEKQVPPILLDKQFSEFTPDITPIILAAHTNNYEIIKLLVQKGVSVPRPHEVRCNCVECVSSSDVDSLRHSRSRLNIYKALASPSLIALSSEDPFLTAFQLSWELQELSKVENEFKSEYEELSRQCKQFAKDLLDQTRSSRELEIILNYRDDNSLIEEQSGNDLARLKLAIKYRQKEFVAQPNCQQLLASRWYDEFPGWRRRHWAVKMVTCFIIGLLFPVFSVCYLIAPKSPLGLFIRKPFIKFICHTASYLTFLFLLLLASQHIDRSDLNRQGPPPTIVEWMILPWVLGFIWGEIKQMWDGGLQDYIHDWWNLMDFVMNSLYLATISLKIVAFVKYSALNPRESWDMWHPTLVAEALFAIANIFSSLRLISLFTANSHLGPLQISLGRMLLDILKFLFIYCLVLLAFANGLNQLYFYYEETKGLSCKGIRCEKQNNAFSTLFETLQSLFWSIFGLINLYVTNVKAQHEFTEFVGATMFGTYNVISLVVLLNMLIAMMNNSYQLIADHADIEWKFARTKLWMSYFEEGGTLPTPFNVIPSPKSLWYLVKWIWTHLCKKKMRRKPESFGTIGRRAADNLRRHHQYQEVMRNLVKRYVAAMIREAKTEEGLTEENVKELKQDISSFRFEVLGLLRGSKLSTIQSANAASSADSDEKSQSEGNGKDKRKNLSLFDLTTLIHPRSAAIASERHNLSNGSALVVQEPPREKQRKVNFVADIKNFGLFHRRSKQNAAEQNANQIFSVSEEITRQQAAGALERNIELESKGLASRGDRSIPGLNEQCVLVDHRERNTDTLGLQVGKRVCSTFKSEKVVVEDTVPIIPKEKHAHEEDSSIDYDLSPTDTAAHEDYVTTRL

[6] = target: T3, Tyrosine-protein phosphatase non-receptor type 7 (Homo sapiens, UniProt P35236); test: redox-dependent HePTP inhibition, mechanism study, biochemical, fluorescence (AID 2068); type: functional
T3 sequence (P35236 whole entry): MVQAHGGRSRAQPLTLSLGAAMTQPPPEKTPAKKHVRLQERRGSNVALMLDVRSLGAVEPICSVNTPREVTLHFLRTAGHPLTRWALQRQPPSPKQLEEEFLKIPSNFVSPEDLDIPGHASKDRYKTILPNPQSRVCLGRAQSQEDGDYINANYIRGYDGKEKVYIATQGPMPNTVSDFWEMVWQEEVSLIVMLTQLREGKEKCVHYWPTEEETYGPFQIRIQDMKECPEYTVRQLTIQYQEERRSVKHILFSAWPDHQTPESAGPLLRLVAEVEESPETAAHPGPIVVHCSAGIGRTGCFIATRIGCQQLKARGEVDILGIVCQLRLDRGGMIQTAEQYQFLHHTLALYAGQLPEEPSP

[7] = target: T4, Dual specificity protein phosphatase 6 (Rattus norvegicus, UniProt Q64346); type: functional;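 further: confirmatory in vitro dose-response testing of MKP-3 inhibition; recombinant His-tagged MKP-3 made in E. coli BL21 with OMFP substrate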
T4 sequence (Q64346 whole entry): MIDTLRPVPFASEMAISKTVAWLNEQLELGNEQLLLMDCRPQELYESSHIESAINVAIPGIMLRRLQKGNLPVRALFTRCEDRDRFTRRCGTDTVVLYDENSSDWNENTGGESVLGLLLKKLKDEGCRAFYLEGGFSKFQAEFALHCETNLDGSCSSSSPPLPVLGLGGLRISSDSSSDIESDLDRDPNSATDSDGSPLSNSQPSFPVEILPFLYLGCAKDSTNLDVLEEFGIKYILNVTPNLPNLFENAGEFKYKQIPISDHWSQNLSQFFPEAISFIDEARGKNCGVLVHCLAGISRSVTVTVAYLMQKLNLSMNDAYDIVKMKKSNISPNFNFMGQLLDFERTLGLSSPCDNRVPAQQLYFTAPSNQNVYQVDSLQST

Cannabinoid receptor 2 [8] = target: T5, Cannabinoid receptor 2 (Homo sapiens, UniProt P34972); test: SAR analysis of agonists of the Cannabinoid Receptor 2 using an Image-Based Assay - Set 2. [Related pubchem assays (depositor defined):AID1961, AID1965]; type: functional
T5 sequence (P34972 whole entry): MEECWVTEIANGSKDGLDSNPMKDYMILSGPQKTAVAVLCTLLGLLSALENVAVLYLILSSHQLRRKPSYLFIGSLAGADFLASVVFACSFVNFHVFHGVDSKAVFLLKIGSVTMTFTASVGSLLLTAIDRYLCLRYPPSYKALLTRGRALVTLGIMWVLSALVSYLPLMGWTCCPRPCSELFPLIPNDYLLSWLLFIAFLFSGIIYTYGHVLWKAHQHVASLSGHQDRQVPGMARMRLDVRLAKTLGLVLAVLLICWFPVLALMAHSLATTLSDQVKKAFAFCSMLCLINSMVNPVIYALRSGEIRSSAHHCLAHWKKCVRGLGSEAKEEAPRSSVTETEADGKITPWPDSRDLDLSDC

Cannabinoid receptor 1 [9] = target: T6, Cannabinoid receptor 1 (Homo sapiens, UniProt P21554); test: SAR analysis of agonists of the Cannabinoid Receptor 1 using an Image-Based Assay - Set 3. [Related pubchem assays (depositor defined):AID1961, AID1965]; type: functional
T6 sequence (P21554 whole entry): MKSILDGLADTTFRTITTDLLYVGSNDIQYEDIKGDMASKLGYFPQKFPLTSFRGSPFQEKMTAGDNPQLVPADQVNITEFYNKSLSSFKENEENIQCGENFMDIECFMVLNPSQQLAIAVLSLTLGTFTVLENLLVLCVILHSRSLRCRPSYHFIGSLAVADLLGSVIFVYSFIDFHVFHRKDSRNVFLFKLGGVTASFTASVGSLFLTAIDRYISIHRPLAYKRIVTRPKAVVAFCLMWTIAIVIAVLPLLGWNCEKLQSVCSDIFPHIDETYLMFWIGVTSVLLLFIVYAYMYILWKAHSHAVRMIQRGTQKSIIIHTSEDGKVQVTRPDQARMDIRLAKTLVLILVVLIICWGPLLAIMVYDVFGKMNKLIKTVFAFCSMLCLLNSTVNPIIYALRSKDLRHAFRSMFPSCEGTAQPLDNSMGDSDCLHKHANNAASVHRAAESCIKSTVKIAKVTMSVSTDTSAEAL

[10] = target: G-protein coupled receptor 55 (Homo sapiens, UniProt Q9Y2T6); test: SAR analysis of selective Agonists of GPR55 using an Image-Based Assay - Set 2. [Related pubchem assays (depositor defined):AID1961, AID1965]; type: functional
Chain of G-protein coupled receptor 55 (Q9Y2T6 whole entry): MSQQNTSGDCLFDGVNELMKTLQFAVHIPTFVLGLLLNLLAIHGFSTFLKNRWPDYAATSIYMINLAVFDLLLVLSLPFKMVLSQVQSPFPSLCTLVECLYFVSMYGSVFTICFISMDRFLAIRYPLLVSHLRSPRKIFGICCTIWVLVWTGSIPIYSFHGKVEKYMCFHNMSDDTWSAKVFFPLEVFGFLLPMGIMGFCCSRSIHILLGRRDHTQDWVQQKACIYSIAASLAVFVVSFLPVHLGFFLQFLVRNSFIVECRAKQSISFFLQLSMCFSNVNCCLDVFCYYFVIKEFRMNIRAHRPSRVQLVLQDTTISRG

[11] = target: T7, G-protein coupled receptor 35 (Homo sapiens, UniProt Q9HC97); test: SAR analysis of Antagonists of the GPR35 Receptor using an Image-Based Assay - Set 4. [Related pubchem assays (depositor defined):[…]]; type: functional
T7 sequence (Q9HC97 whole entry): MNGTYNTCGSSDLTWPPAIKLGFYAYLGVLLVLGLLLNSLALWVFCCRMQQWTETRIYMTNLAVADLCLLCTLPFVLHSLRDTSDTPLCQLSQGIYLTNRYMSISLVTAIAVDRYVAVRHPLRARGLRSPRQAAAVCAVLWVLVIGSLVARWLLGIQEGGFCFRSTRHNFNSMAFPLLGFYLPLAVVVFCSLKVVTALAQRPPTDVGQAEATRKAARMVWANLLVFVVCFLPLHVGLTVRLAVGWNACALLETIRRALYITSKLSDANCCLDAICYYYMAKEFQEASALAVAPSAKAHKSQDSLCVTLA

Cannabinoid receptor 2 [12] = target: T5, Cannabinoid receptor 2; test: SAR analysis of antagonists of the Cannabinoid Receptor 2 using an Image-Based Assay - Set 2. [Related pubchem assays (depositor defined):AID1961, AID1965]; type: functional
Cannabinoid receptor 1 [13] = target: T6, Cannabinoid receptor 1; test: SAR analysis of antagonists of the Cannabinoid Receptor 1 using an Image-Based Assay - Set 3. [Related pubchem assays (depositor defined):AID1961, AID1965]; type: functional
[14] = target: T7, G-protein coupled receptor 35; test: SAR analysis of Agonists of the GPR35 Receptor using an Image-Based Assay - Set 3. [Related pubchem assays (depositor defined):AID1961, AID1965]; type: functional

Question: Which IC50 [1] does the source give for O=C1Nc2ccc([N+](=O)[O-])cc2C12NNc1ccccc1O2 (centres undefined) here?
Answer: > 100 µM (inactive)

Question: What about the IC50 [2] of the same compound?
Answer: > 100 µM (inactive)

Question: What about the IC50 [3] of the same compound?
Answer: > 100 µM (inactive)

Question: Which “Absolute IC50 (CHOP)” value [4] does the source give for CCNC(=S)N/N=C/c1cc(Br)cc(Br)c1OC here?
Answer: 10 µM

Question: CCOC(=O)C(O)(c1ccc(NC(=S)NC(=O)c2ccc(Cl)cc2Cl)c(C)c1)C(F)(F)F (centres undefined) was tested. Which EC50 [5] did it give?
Answer: 3.35 µM (active)

Question: What does the source list for COc1cc(C(=S)NCc2ccccc2)ccc1O?
Answer: IC50 [6]: 0.665 µM (active); IC50 [7]: > 100 µM (inactive)

Question: O=C(Nc1cccc(S(=O)(=O)N2CCOCC2)c1)c1cc2c(s1)CCCC2 was tested. Which EC50 (Cannabinoid receptor 2 [8]) did it give?
Answer: > 32 µM (inactive)

Question: What about the EC50 (Cannabinoid receptor 1 [9]) of the same compound?
Answer: > 32 µM (inactive)

Question: What about the EC50 [10] of the same compound?
Answer: > 32 µM (inactive)

Question: And the IC50 [11]?
Answer: > 32 µM (inactive)

Question: And the IC50 (Cannabinoid receptor 2 [12])?
Answer: > 32 µM (inactive)

Question: And the IC50 (Cannabinoid receptor 1 [13])?
Answer: > 32 µM (inactive)

Question: And the EC50 [14]?
Answer: > 32 µM (inactive)
